Broadly, the IC50 is the concentration at which inhibition is half-maximal.

Data on 2 compounds can be found in PMC5175396, “Cytotoxicity of Plumbagin, Rapanone and 12 other naturally occurring Quinones from Kenyan Flora towards human carcinoma cells” (BMC Pharmacology & Toxicology, 2016).

Data set [1] concerns A549 human non-small cell lung cancer (NSCLC) cell line. As to the kind of experiment: Neutral red (NR) uptake cytotoxicity assay, A549. The class given is cell-based. As to conditions: for IC50: Homo sapiens, A549, 72 h, neutral red assay, 72 h incubation; for selectivity index A549: IC50 in CRL2120 normal fibroblasts divided by IC50 in A549. The text has this:
(§1) Six human cancer cell lines and one normal cell line were used in this study. They included A549 human non-small cell lung cancer (NSCLC) cell line, obtained from the Institute for Fermentation, Osaka (IFO, Japan) and provided by Prof. Dr. Tansu Koparal (Anadolu University, Eskisehir, Turkey), SPC212 human mesothelioma cell line obtained from American Type Culture Collection (ATCC) and provided by Dr. Asuman Demiroğlu Zergeroğlu (Gebze Technical University, Kocaeli, Turkey), DLD-1 colorectal adenocarcinoma cell lines obtained from ATCC (CCL-221), Caco2 colorectal adenocarcinoma cells (ATCC, HTB-37) obtained from the ŞAP Institute of Turkey (Ankara), HepG2 hepatocarcinoma cells (ATCC, HB-8065) and MCF-7 breast adenocarcinoma cells (ATCC, HTB-22) were provided by Prof. Dr. Tansu Koparal (Anadolu University, Eskisehir, Turkey). The normal CRL2120 human skin fibroblasts were obtained from ATCC [CCD1094Sk (ATCC, CRL-2120)]. The cells were maintained as a monolayer in DMEM medium (Sigma-aldrich, Munich, Germany) medium supplemented with 10% fetal calf serum and 1% penicillin (100 U/mL)-streptomycin (100 μg/mL) in a humidified 5% CO2 atmosphere at 37 °C.
(§2) The cytotoxicity of samples was performed by NR uptake assay as previously described. This method is based on the ability of viable cells to incorporate and bind the supravital dye NR in the lysosomes. […] Briefly, cells were detached by treatment with 0.25% trypsin/EDTA (Invitrogen) and an aliquot of 1 × 10^4 cells was placed in each well of a 96-well cell culture plate (Thermo Scientific, Germany) in a total volume of 200 μL. The cells were allowed to attach overnight and subsequently treated with different concentrations of the 14 compounds. Each of the studied samples was immediately added in varying concentrations in additional 100 μL of culture medium to obtain a total volume of 200 μL/well. After 72 h incubation in humidified 5% CO2 atmosphere at 37 °C, the medium was removed and 200 μL fresh medium containing 50 μg/mL NR was added to each well and incubation continued for an additional 3 h at 37 °C in 5% CO2 atmosphere. The dye medium was then removed and each well was then washed rapidly with 200 μL phosphate buffer saline (PBS) followed by addition of 200 μL of acetic acid-water-ethanol in water (1:49:50). The plates were kept for 15 min at room temperature to extract the dye and then shaken for a few minutes on a GFL 3012 shaker (Gesellschaft für Labortechnik mbH, Burgwedel, Germany). Absorbance was measured on ELx 808 Ultra Microplate Reader (Biotek) equipped with a 540 nm filter. Each assay was done at least three times, with three replicates each. The viability was evaluated based on a comparison with untreated cells. The IC50 values represent the sample’s concentrations required to inhibit 50% of cell proliferation and were calculated from a calibration curve by linear regression using Microsoft Excel.

The subject of data set [2] is SPC212 human mesothelioma cell line. As to the kind of experiment: Neutral red (NR) uptake cytotoxicity assay, SPC212. The note with it: for selectivity index SPC212: IC50 in CRL2120 normal fibroblasts divided by IC50 in SPC212. Format: cell-based.
From the text: as §1
as §2, with “lysosomes. The procedure is cheaper and more sensitive than other cytotoxicity tests.” for “lysosomes.”

For data set [3], the system named is DLD-1 colorectal adenocarcinoma cell lines. As to the kind of experiment: Neutral red (NR) uptake cytotoxicity assay, DLD-1. As to conditions: for IC50: Homo sapiens, DLD-1, neutral red assay, 72 h incubation, read-out: IC50 DLD-1. Format: cell-based, human.
From the text: as §1
as §2, with “lysosomes. The procedure is cheaper and more sensitive than other cytotoxicity tests.” for “lysosomes.”

Data set [4] in a line: Neutral red (NR) uptake cytotoxicity assay, Caco-2. Format: cell-based, human. The note with it: human; IC50 in CRL2120 normal fibroblasts divided by IC50 in Caco-2; read-out: selectivity index Caco-2 (converted).
From the text: as §1
as §2, with “lysosomes. The procedure is cheaper and more sensitive than other cytotoxicity tests.” for “lysosomes.”

Data set [5] relates to Caco2 colorectal adenocarcinoma cells. As to the kind of experiment: Neutral red (NR) uptake cytotoxicity assay, Caco-2. The class given is cell-based, human. As to conditions: Homo sapiens, Caco-2; neutral red assay, 72 h incubation.
From the text: as §1
as §2, with “lysosomes. The procedure is cheaper and more sensitive than other cytotoxicity tests.” for “lysosomes.”

Data set [6] deals with MCF-7 breast adenocarcinoma cells. As to the kind of experiment: Neutral red (NR) uptake cytotoxicity assay, MCF-7. Format: cell-based, human. As to conditions: for IC50: Homo sapiens, MCF7, 72 h, neutral red assay, 72 h incubation, read-out: IC50 MCF-7; for selectivity index MCF-7: IC50 in CRL2120 normal fibroblasts divided by IC50 in MCF-7.
From the text: as §1
as §2, with “lysosomes. The procedure is cheaper and more sensitive than other cytotoxicity tests.” for “lysosomes.”

Data set [7] deals with HepG2 hepatocarcinoma cells. As to the kind of experiment: Neutral red (NR) uptake cytotoxicity assay, HepG2. The class given is cell-based, human. As to conditions: for IC50: Homo sapiens, HepG2, neutral red assay, 72 h incubation, read-out: IC50 HepG2; for selectivity index HepG2: IC50 in CRL2120 normal fibroblasts divided by IC50 in HepG2.
From the text: as §1
as §2, with “lysosomes. The procedure is cheaper and more sensitive than other cytotoxicity tests.” for “lysosomes.”

Data set [8] concerns normal CRL2120 human skin fibroblasts. As to the kind of experiment: Neutral red (NR) uptake cytotoxicity assay, normal CRL2120 fibroblasts. As to conditions: Skin fibroblast, 72 h incubation. The class given is cell-based.
From the text: as §1
as §2, with “lysosomes. The procedure is cheaper and more sensitive than other cytotoxicity tests.” for “lysosomes.”

Data set [9] relates to caspase 3/7 in MCF-7 cells. As to the kind of experiment: Caspase-Glo 3/7 assay. Format: cell-based, human. As to conditions: IC50 and 2-fold IC50, 6 h (data not shown). Here is the method:
Caspases activity in MCF-7 cells was detected using Caspase-Glo 3/7 and Caspase-Glo 9 Assay kits (Promega, Mannheim, Germany) as previously reported. […] Luminescence was measured using an BioTek Synergy™ HT multi-detection microplate reader. Caspase activity was expressed as percentage of the untreated control.

SMILES strings stand for the structures.

With `CC1=CC(=O)c2c(O)cccc2C1=O` [Compound 4, 5-hydroxy-2-methyl-1,4-naphthalenedione], the IC50 is 1.14 ± 0.02 µM in data set [1]; 0.27 ± 0.01 µM in data set [2] (Homo sapiens, 72 h, neutral red assay, 72 h incubation, read-out: IC50 SPC212); 0.98 ± 0.11 µM in data set [3]; 0.07 ± 0.01 µM in data set [5]; 0.06 ± 0.01 µM in [6]; 1.01 ± 0.08 µM in [7]. In addition, the IC50 in [8] stood at 67.7 ± 6.49 µM. Moreover, in [1], the “selectivity index A549” value stood at 59.35. The “selectivity index SPC212” value in [2] worked out at 250.59. The selectivity ratio at 72 h in data set [4] was 967. For the same compound, the “selectivity index MCF-7” value in data set [6] was found to be 1127.67. Besides, the “selectivity index HepG2” value in [7] is 66.99. The “activity of caspase 3/7” value in data set [9] was “no modification”.

As to `CCCCCCCCCCCCCC1=C(O)C(=O)C=C(O)C1=O` [Compound 9, 2,5-dihydroxy-3-tridecyl-2,5-cyclohexadiene-1,4-dione], the IC50 in data set [1] came to 27.4 ± 1.46 µM; in data set [3] it was 46.6 ± 5.38 µM; in [5] it was 22.95 ± 0.13 µM; in data set [6], 16.9 ± 4.65 µM; in data set [7], 32.7 ± 0.61 µM; in data set [8], 95.2 ± 6.65 µM. Further, in data set [1], the “selectivity index A549” value was 3.48. The “selectivity index SPC212” value in [2] is reported as 41.96. In data set [3] (IC50 in CRL2120 normal fibroblasts divided by IC50 in DLD-1), the “selectivity index DLD-1” value was 2.04. The selectivity ratio at 72 h in [4] is 4.15. For the same compound, in [6], the “selectivity index MCF-7” value turned out to be 5.62. Further, the “selectivity index HepG2” value in [7] was determined as 2.91. The “activity of caspase 3/7” value in data set [9] is listed as “no modification”.
